Reference: patent US20100104511A1, “METHODS AND COMPOSITIONS USING CHELATOR-ANTIBODY CONJUGATES” (priority 2006, published 2010)

Key:
Experiment in all cases: Apoptosis by Annexin-V-Fluos staining and flow cytometry
[1] = system: H3255 cells; conditions: H3255, 10 μM, 72 hours
[2] = system: H441 cells; conditions: H441, 10 μM, 72 hours
[3] = system: MDA-MB-231 cells; conditions: MDA-MB-231, 10 μM, 72 hours

**Q.** With `COc1cc2ncnc(Nc3ccc(F)c(Cl)c3)c2cc1OCCCN1CCOCC1` [gefitinib] as the compound, how does the “apoptosis percentage after deducting DMSO control” value (from here on “apoptosis percentage”) [1] read?
**A.** 25.86%

**Q.** What about the “apoptosis percentage” value [2] of the same compound?
**A.** 8.13%

**Q.** What about the “apoptosis percentage” value [3] of the same compound?
**A.** 6.92%
